For 41 compounds, IC50 results are on record in ChEMBL document CHEMBL1122934, “Angiotensin-converting enzyme inhibitors. New orally active antihypertensive (mercaptoalkanoyl)- and [(acylthio)alkanoyl]glycine derivatives” (J Med Chem, 1985).

The assay deals with T1, Angiotensin-converting enzyme (Oryctolagus cuniculus, UniProt P12822).
T1 sequence (P12822 whole entry): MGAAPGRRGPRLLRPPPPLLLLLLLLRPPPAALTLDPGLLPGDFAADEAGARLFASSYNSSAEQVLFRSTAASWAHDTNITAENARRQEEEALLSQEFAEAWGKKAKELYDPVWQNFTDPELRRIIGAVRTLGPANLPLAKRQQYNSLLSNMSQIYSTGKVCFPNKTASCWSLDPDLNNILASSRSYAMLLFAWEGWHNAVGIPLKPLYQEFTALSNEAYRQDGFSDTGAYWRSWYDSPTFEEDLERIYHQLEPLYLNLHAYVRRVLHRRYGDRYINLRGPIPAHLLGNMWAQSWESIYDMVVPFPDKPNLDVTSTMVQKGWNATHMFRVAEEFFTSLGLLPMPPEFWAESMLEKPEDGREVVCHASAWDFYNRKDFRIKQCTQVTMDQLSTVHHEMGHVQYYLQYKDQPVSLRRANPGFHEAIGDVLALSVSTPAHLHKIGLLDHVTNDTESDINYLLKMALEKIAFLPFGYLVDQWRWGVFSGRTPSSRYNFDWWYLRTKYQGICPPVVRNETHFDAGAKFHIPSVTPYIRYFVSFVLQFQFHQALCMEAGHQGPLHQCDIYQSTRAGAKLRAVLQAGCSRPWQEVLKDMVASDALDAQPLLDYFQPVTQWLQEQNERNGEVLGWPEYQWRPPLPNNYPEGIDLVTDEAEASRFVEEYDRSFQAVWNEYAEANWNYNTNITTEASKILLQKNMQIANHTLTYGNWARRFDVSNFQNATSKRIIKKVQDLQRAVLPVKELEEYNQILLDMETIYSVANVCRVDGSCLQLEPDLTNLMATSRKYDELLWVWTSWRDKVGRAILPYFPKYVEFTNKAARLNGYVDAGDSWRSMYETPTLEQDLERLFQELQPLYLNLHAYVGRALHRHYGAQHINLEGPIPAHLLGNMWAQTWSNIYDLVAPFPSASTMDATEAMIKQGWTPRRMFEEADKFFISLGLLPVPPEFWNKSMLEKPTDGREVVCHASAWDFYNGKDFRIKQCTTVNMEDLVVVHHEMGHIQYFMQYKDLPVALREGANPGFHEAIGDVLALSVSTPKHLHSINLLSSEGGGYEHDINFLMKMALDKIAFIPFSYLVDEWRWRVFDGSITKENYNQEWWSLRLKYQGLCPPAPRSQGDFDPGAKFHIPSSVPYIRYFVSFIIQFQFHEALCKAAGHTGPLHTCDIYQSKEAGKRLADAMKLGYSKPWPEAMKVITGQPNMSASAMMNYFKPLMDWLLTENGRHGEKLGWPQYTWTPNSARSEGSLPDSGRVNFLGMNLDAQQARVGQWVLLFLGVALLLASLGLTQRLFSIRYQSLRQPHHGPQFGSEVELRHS
Kind of assay: In vitro inhibitory activity against rabbit lung Angiotensin I converting enzyme at pH 8.3.
Regarding `CC(=O)SCC(C)C(=O)N(CC(=O)O)CC1CC2CC(C1C)C2(C)C` (stereo unspecified), the IC50 worked out at 85 nM.

The compound `CC(=O)SCC(C)C(=O)N(CC(=O)O)c1ccc(F)cc1` (stereo unspecified) displayed a concentration for half-maximal inhibition (IC50) of 600 nM. This IC50 lies about 7.1-fold higher than the previous one.

Consider `Cc1ccccc1N(CC(=O)O)C(=O)C(C)CS` (stereo unspecified), for which 120 nM corresponded to half-maximal inhibition (IC50).

As for `CC(=O)SCC(C)C(=O)N(CC(=O)O)Cc1ccco1` (stereo unspecified), the IC50 was found to be 700 nM.

As to `C#CCN(CC(=O)O)C(=O)C(C)CSC(C)=O` (stereo unspecified), the concentration for half-maximal inhibition (IC50) was 4500 nM. Compared with the last compound, the IC50 is about 6.4-fold higher.

The compound `COc1cccc(N(CC(=O)O)C(=O)C(C)CSC(C)=O)c1` (stereo unspecified) yielded an IC50 of 110 nM.

In turn, `CC(CS)C(=O)N(CC(=O)O)C1CCS(=O)(=O)C1` (stereo unspecified) yielded a half-inhibitory concentration (IC50) of 280 nM.

For the compound `CC(CS)C(=O)NCC(=O)O` (stereo unspecified), half-maximal inhibition (IC50) required 210 nM.

Regarding `Cc1cc(C)cc(N(CC(=O)O)C(=O)C(C)CS)c1` (stereo unspecified), the half-inhibitory concentration (IC50) came to 44 nM.

The compound `CC(=O)SCC(C)C(=O)N(CC(=O)O)C1Cc2ccccc2C1` (stereo unspecified) yielded an IC50 of 340 nM.

`C#CCN(CC(=O)O)C(=O)C(C)CS` (stereo unspecified) yielded a half-inhibitory concentration (IC50) of 270 nM.

`CC(=O)SCC(C)C(=O)N(C1CC1)C(C)C(=O)O` (stereo unspecified) registered an IC50 of 220 nM.

In turn, `CC(CS)C(=O)N(CC(=O)O)CC1CCCO1` (stereo unspecified) gave an IC50 of 130 nM.

Turning to `CC(=O)SCC(C)C(=O)N(CC(=O)O)CC1CCCO1` (stereo unspecified), it took 1900 nM to reach half-maximal inhibition (IC50).

For the compound `CC(=O)SCC(C)C(=O)N(CC(=O)O)C1CCC2CC1C2(C)C` (stereo unspecified), the 50% inhibitory concentration (IC50) worked out at 45 nM.

The compound `CC(CS)C(=O)N(CC(=O)O)Cc1cccs1` (stereo unspecified) showed an IC50 of 55 nM.

On to `CC(=O)SCC(C)C(=O)N(CC(=O)O)C1CCCCC1` (stereo unspecified), for which the IC50 was determined as 270 nM. This IC50 is about 4.9-fold higher than that of the compound before.

As for `CC(CS)C(=O)N(CC(=O)O)Cc1ccco1` (stereo unspecified), 170 nM corresponded to half-maximal inhibition (IC50).

`CC(=O)SCC(C)C(=O)N(CC(=O)O)C1CCS(=O)(=O)C1` (stereo unspecified) showed an IC50 of 280 nM.

Consider `CC(=O)SCC(C)C(=O)N(CC(=O)O)C1CC2CCC1C2` (stereo in doubt; 31), for which the concentration for half-maximal inhibition (IC50) amounted to 52 nM.

`CSc1cccc(N(CC(=O)O)C(=O)C(C)CSC(C)=O)c1` (stereo unspecified) gave a half-inhibitory concentration (IC50) of 75 nM.

`CC(=O)SCC(C)C(=O)N(CC(=O)O)C[C@H]1CC2CC(C1C)C2(C)C` (stereo partly specified) showed an IC50 of 140 nM.

As for `CC(=O)SCC(C)C(=O)N(CC(=O)O)c1ccc(C(C)C)cc1` (stereo unspecified), half-maximal inhibition (IC50) was put at 60 nM.

On to `CC(CS)C(=O)N(CC(=O)O)C(C)C` (stereo unspecified), for which inhibition was half-maximal at 72 nM (IC50). The IC50 values of the last two compounds are within 1.5-fold of each other.

On to `CC(CS)C(=O)N(C1CC1)C(C)C(=O)O` (stereo unspecified), for which inhibition was half-maximal at 79 nM (IC50).

In turn, `CCN1CCCC1CN(CC(=O)O)C(=O)C(C)CS` (stereo unspecified) gave an IC50 of 640 nM. Against the preceding compound, the IC50 is about 8.1-fold higher.

`CC(=O)SCC(C)C(=O)N(CC(=O)O)c1ccccc1C` (stereo unspecified): the concentration for half-maximal inhibition (IC50) was found to be 550 nM.

`CC(=O)SCC(C)C(=O)N(CC(=O)O)c1cccc(F)c1` (stereo unspecified): the 50% inhibitory concentration (IC50) was determined as 51 nM.

Consider `CC(CS)C(=O)N(CC(=O)O)C[C@H]1CC2CC(C1C)C2(C)C` (stereo partly specified), for which half-maximal inhibition (IC50) required 160 nM.

Take `CC(=O)SCC(C)C(=O)N(CC(=O)O)C(C)C` (stereo unspecified): the midpoint of inhibition, the IC50, lay at 5900 nM.

Compound `CC(=O)SCC(C)C(=O)N(CC(=O)O)C1CCC1` (stereo unspecified) registered an IC50 of 220 nM.

In the case of `CC(CS)C(=O)N(CC(=O)O)CC1CC2CC(C1C)C2(C)C` (stereo unspecified), the 50% inhibitory concentration (IC50) is 440 nM.

Compound `CC(=O)SCC(C)C(=O)N(CC(=O)O)c1cc(C)cc(C)c1` (stereo unspecified) displayed a concentration for half-maximal inhibition (IC50) of 44 nM.

Turning to `Cc1cccc(N(CC(=O)O)C(=O)C(C)CS)c1` (stereo unspecified), the half-maximal inhibitory concentration (IC50) came out at 19 nM.

Compound `CCCCc1ccc(N(CC(=O)O)C(=O)C(C)CSC(C)=O)cc1` (stereo unspecified) registered an IC50 of 64 nM.

Turning to `CC(=O)SCC(C)C(=O)N(CC(=O)O)Cc1cccs1` (stereo unspecified), the half-inhibitory concentration (IC50) is 750 nM.

Consider `Cc1ccc(N(CC(=O)O)C(=O)C(C)CS)cc1` (stereo unspecified), for which inhibition was half-maximal at 5 nM (IC50). This IC50 is about 150-fold lower than that of the compound before.

The compound `CCN(CC(=O)O)C(=O)C(C)CS` (stereo unspecified) displayed an IC50 of 75 nM. Compared with the last compound, the IC50 is about 15-fold higher.

Consider `CC(S)C(=O)NCC(=O)O` (stereo unspecified) [TIOPRONIN], for which half-maximal inhibition (IC50) required 1900 nM. Against the preceding compound, the IC50 is about 25-fold higher.

For `CC(CS)C(=O)N(C)CC(=O)O` (stereo unspecified), the IC50 was 130 nM.

Compound `CC(=O)SCC(C)C(=O)N(CC(=O)O)C1CC2CCC1C2` (stereo in doubt; 30) came in with an IC50 of 20 nM.

As usually defined, the IC50 is the point on the concentration scale where inhibition reaches its midpoint. High values mean lower potency, low ones higher potency.
